# Where two headings read alike, the source gives them in different places.
# Assays:
# A549 cells = experiment: cells; settings: Homo sapiens, A549, 72 h
# In short: (§1)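 Cells were seeded at 5000 per well, attached overnight in drug-free medium, then exposed for 72 hours to ten 2/5 serial dilutions (10 to 0.003 μg/mL, 1% final DMSO) in triplicate. Growth was measured by SRB staining against a time-zero plate, with NCI-algorithm four-parameter logistic fits.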
# HT29 cells = experiment: cells; settings: Homo sapiens, HT-29, 72 h
# In short: as §1
# MDA-MB-231 cells = experiment: cells; settings: Homo sapiens, MDA-MB-231, 72 h
# In short: as §1
# PSN1 cells = experiment: cells; settings: Homo sapiens, PSN1, 72 h
# In short: as §1
# H82 tumors = experiment: In vivo xenograft, human lung (SCLC) H82
# Description: (§2) Female athymic nu/nu mice (Harlan Laboratories Models, S. L. Barcelona, Spain or Envigo, Spain) were utilized for all experiments. Animal were housed in individually ventilated cages Sealsafe® Plus, Techniplast S.P.A.), up to ten per cage on a 12-hour light-dark cycle at 21-23° C. and 40-60% humidity. Mice were allowed free access to irradiated standard rodent diet (Tecklad 2914C) and sterilized water. Animals were acclimated for at least 5 days prior to tumor implantation with a tumor cell suspension.
# H82 cells were grown as a suspension and maintained by addition of fresh medium, as the cell density increases, every 2 to 3 days. Every week, culture was reestablished by centrifugation of the suspension with subsequent resuspension in fresh medium at a concentration of 1×10^5 cell/ml. Animals were subcutaneously implanted (on the right flank using 26 G needle and a 1 cc syringe) at 4-6 weeks of age with 5×10^6 H82 cells, suspended in 0.05 mL of a solution consisting of 50% Matrigel® (Corning Incorporated Life Sciences) and 50% medium without serum or antibiotics.
# (§3) Treatment tolerability was assessed by monitoring body weight evolution, clinical signs of systemic toxicity, as well as evidences of local damage in the injection site.
# In xenograft studies with other cell lines: • Tumor volume was calculated using the equation (a·b^2)/2, where a: length (longest diameter) and b: width (shortest diameter) were measured in mm by using digital caliper (Fowler Sylvac, S235PAT).
# (§4) Treatments producing >20% lethality and/or 20% net body weight loss were considered toxic.
# Tables and figures summarize the data obtained from complete experimental groups, i.e. those groups keeping the initial number of animals, n=8-10.
# H526 tumors = experiment: In vivo xenograft, human lung (SCLC) H526
# Description: as §2
# H526 cells were grown as a suspension and maintained by addition of fresh medium, as the cell density increases, every 2 to 3 days. Every week, culture was reestablished by centrifugation of the suspension with subsequent resuspension in fresh medium at a concentration of 1×10^5 cell/mL. Each animal was subcutaneously implanted (on the right flank using 26 G needle and a 1 cc syringe) at 4-6 weeks of age with 5×10^6 H526 cells suspended in 0.05 mL of a solution consisting of 50% Matrigel® (Corning Incorporated Life Sciences) and 50% medium without serum or antibiotics.
# as §3, §4
# Description for H460 tumors: Female athymic nu/nu mice (Harlan Laboratories Models, S. L. Barcelona, Spain or Envigo, Spain) were utilized for all experiments. Animal were housed in individually ventilated cages Sealsafe® Plus, Techniplast S.P.A.), up to ten per cage on a 12-hour light-dark cycle at 21-23° C. and 40-60% humidity. […] Animals were acclimated for at least 5 days prior to tumor implantation with a tumor cell suspension.
# H460 cells were maintained in vitro at 37° C. with 5% CO2 in Dulbecco's Modified Eagle's Medium (Sigma-Aldrich, Co). Culture cells were passaged every 3 to 5 days upon reaching confluence. Each animal was subcutaneously implanted (on the right flank using 26 G needle and a 1 cc syringe) at 4-6 weeks of age with 5×10^6 H460 cells suspended in 0.05 mL of a solution consisting of 50% Matrigel® (Corning Incorporated Life Sciences) and 50% medium without serum or antibiotics.
# as §3, §4
structure (smiles),measurement,setting,value
COc1c(C)cc2c(c1O)[C@@H]1[C@@H]3[C@@H]4SC[C@]5(N[C@@H](C)Cc6c5[nH]c5ccccc65)C(=O)OC[C@@H](c5c6c(c(C)c(OC(C)=O)c54)OCO6)N3[C@@H](O)[C@H](C2)N1C [D],GI50,A549 cells,12.5 nM
same,CC50,A549 cells; read-out: LC50,> 130 nM
same,IC (TGI),A549 cells; read-out: TGI,28.6 nM
same,GI50,HT29 cells,10.3 nM
same,CC50,HT29 cells; read-out: LC50,> 130 nM
same,IC (TGI),HT29 cells; read-out: TGI,23.4 nM
same,GI50,MDA-MB-231 cells,9.88 nM
same,CC50,MDA-MB-231 cells; read-out: LC50,53.3 nM
same,IC (TGI),MDA-MB-231 cells; read-out: TGI,19.5 nM
same,GI50,PSN1 cells,20.8 nM
same,CC50,PSN1 cells; read-out: LC50,24.7 nM
same,IC (TGI),PSN1 cells; read-out: TGI,22.1 nM
same,Median Tumor Volume,"H460 tumors; Table 24, Day 0, iv Days 0, 7, 14",203.4 mm^3
same,Median Tumor Volume,"H460 tumors; Table 24, Day 2, iv Days 0, 7, 14",367.3 mm^3
same,Median Tumor Volume,"H460 tumors; Table 24, Day 7, iv Days 0, 7, 14",792.0 mm^3
same,Median Tumor Volume,"H460 tumors; Table 24, Day 9, iv Days 0, 7, 14",854.6 mm^3
same,Median Tumor Volume,"H460 tumors; Table 24, Day 12, iv Days 0, 7, 14",1026.7 mm^3
same,Median Tumor Volume,"H460 tumors; Table 24, Day 14, iv Days 0, 7, 14",1175.8 mm^3
same,Median Tumor Volume,"H460 tumors; Table 24, Day 16, iv Days 0, 7, 14",1322.1 mm^3
same,Median Tumor Volume,"H460 tumors; Table 24, Day 19, iv Days 0, 7, 14",1581.1 mm^3
same,Median Tumor Volume,"H460 tumors; Table 24, Day 21, iv Days 0, 7, 14",1789.3 mm^3
same,Median Tumor Volume,"H460 tumors; Table 24, Day 23, iv Days 0, 7, 14",1966.5 mm^3
same,Median Tumor Volume,"H460 tumors; Table 24, Day 26, iv Days 0, 7, 14",2080.7 mm^3
same,Median Tumor Volume,"H460 tumors; iv, 0.5 mg/kg, 0 h",187.2 mm^3
same,Median Tumor Volume,"H460 tumors; iv, 0.5 mg/kg, 48 h",329.7 mm^3
same,Median Tumor Volume,"H460 tumors; iv, 0.5 mg/kg, 120 h",559.4 mm^3
same,Median Tumor Volume,"H460 tumors; iv, 0.5 mg/kg, 168 h",756.5 mm^3
same,Median Tumor Volume,"H460 tumors; iv, 0.5 mg/kg, 336 h",1626.8 mm^3
same,Median Tumor Volume,"H460 tumors; iv, 0.5 mg/kg, 384 h",2025.0 mm^3
same,Median Tumor Volume,"H82 tumors; Table 33, Day 0.0, iv Days 0, 7, 14, 12-R 0.05 mg/kg, Compound D 0.5 mg/kg",169.4 mm^3
same,Median Tumor Volume,"H82 tumors; Table 33, Day 2.0, iv Days 0, 7, 14, 12-R 0.05 mg/kg, Compound D 0.5 mg/kg",340.6 mm^3
same,Median Tumor Volume,"H82 tumors; Table 33, Day 5.0, iv Days 0, 7, 14, 12-R 0.05 mg/kg, Compound D 0.5 mg/kg",443.3 mm^3
same,Median Tumor Volume,"H82 tumors; Table 33, Day 7.0, iv Days 0, 7, 14, 12-R 0.05 mg/kg, Compound D 0.5 mg/kg",496.2 mm^3
same,Median Tumor Volume,"H82 tumors; Table 33, Day 9.0, iv Days 0, 7, 14, 12-R 0.05 mg/kg, Compound D 0.5 mg/kg",614.1 mm^3
same,Median Tumor Volume,"H82 tumors; Table 33, Day 12.0, iv Days 0, 7, 14, 12-R 0.05 mg/kg, Compound D 0.5 mg/kg",665.5 mm^3
same,Median Tumor Volume,"H82 tumors; Table 33, Day 14.0, iv Days 0, 7, 14, 12-R 0.05 mg/kg, Compound D 0.5 mg/kg",1041.6 mm^3
same,Median Tumor Volume,"H82 tumors; Table 33, Day 16.0, iv Days 0, 7, 14, 12-R 0.05 mg/kg, Compound D 0.5 mg/kg",1151.2 mm^3
same,Median Tumor Volume,"H82 tumors; Table 33, Day 19.0, iv Days 0, 7, 14, 12-R 0.05 mg/kg, Compound D 0.5 mg/kg",1516.7 mm^3
same,Median Tumor Volume,"H82 tumors; Table 33, Day 21.0, iv Days 0, 7, 14, 12-R 0.05 mg/kg, Compound D 0.5 mg/kg",1748.0 mm^3
same,Median Tumor Volume,"H82 tumors; Table 57, Day 0, iv weekly, 47-R 0.1 mg/Kg, Compound D 0.5 mg/Kg",169.4 mm^3
same,Median Tumor Volume,"H82 tumors; Table 57, Day 2, iv weekly, 47-R 0.1 mg/Kg, Compound D 0.5 mg/Kg",340.6 mm^3
same,Median Tumor Volume,"H82 tumors; Table 57, Day 5, iv weekly, 47-R 0.1 mg/Kg, Compound D 0.5 mg/Kg",443.3 mm^3
same,Median Tumor Volume,"H82 tumors; Table 57, Day 7, iv weekly, 47-R 0.1 mg/Kg, Compound D 0.5 mg/Kg",496.2 mm^3
same,Median Tumor Volume,"H82 tumors; Table 57, Day 9, iv weekly, 47-R 0.1 mg/Kg, Compound D 0.5 mg/Kg",614.1 mm^3
same,Median Tumor Volume,"H82 tumors; Table 57, Day 12, iv weekly, 47-R 0.1 mg/Kg, Compound D 0.5 mg/Kg",665.5 mm^3
same,Median Tumor Volume,"H82 tumors; Table 57, Day 14, iv weekly, 47-R 0.1 mg/Kg, Compound D 0.5 mg/Kg",1041.6 mm^3
same,Median Tumor Volume,"H82 tumors; Table 57, Day 16, iv weekly, 47-R 0.1 mg/Kg, Compound D 0.5 mg/Kg",1151.2 mm^3
same,Median Tumor Volume,"H82 tumors; Table 57, Day 19, iv weekly, 47-R 0.1 mg/Kg, Compound D 0.5 mg/Kg",1516.7 mm^3
same,Median Tumor Volume,"H82 tumors; Table 57, Day 21, iv weekly, 47-R 0.1 mg/Kg, Compound D 0.5 mg/Kg",1748.0 mm^3
same,Median Tumor Volume,"H526 tumors; Table 32, Day 0.0, iv Days 0, 7, 14, 12-R 0.05 mg/kg, Compound D 0.5 mg/kg",216.1 mm^3
same,Median Tumor Volume,"H526 tumors; Table 32, Day 2.0, iv Days 0, 7, 14, 12-R 0.05 mg/kg, Compound D 0.5 mg/kg",240.9 mm^3
same,Median Tumor Volume,"H526 tumors; Table 32, Day 4.0, iv Days 0, 7, 14, 12-R 0.05 mg/kg, Compound D 0.5 mg/kg",99.3 mm^3
same,Median Tumor Volume,"H526 tumors; Table 32, Day 7.0, iv Days 0, 7, 14, 12-R 0.05 mg/kg, Compound D 0.5 mg/kg",56.7 mm^3
same,Median Tumor Volume,"H526 tumors; Table 32, Day 9.0, iv Days 0, 7, 14, 12-R 0.05 mg/kg, Compound D 0.5 mg/kg",62.5 mm^3
same,Median Tumor Volume,"H526 tumors; Table 32, Day 11.0, iv Days 0, 7, 14, 12-R 0.05 mg/kg, Compound D 0.5 mg/kg",62.5 mm^3
same,Median Tumor Volume,"H526 tumors; Table 32, Day 14.0, iv Days 0, 7, 14, 12-R 0.05 mg/kg, Compound D 0.5 mg/kg",32.0 mm^3
same,Median Tumor Volume,"H526 tumors; Table 32, Day 16.0, iv Days 0, 7, 14, 12-R 0.05 mg/kg, Compound D 0.5 mg/kg",4.0 mm^3
same,Median Tumor Volume,"H526 tumors; Table 32, Day 21.0, iv Days 0, 7, 14, 12-R 0.05 mg/kg, Compound D 0.5 mg/kg",4.0 mm^3
same,Median Tumor Volume,"H526 tumors; Table 32, Day 28.0, iv Days 0, 7, 14, 12-R 0.05 mg/kg, Compound D 0.5 mg/kg",4.0 mm^3
same,Median Tumor Volume,"H526 tumors; Table 32, Day 35.0, iv Days 0, 7, 14, 12-R 0.05 mg/kg, Compound D 0.5 mg/kg",4.0 mm^3
same,Median Tumor Volume,"H526 tumors; Table 32, Day 42.0, iv Days 0, 7, 14, 12-R 0.05 mg/kg, Compound D 0.5 mg/kg",4.0 mm^3
same,Median Tumor Volume,"H526 tumors; Table 32, Day 49.0, iv Days 0, 7, 14, 12-R 0.05 mg/kg, Compound D 0.5 mg/kg",4.0 mm^3
same,Median Tumor Volume,"H526 tumors; Table 56, Day 0, iv weekly, 47-R 0.1 mg/Kg, Compound D 0.5 mg/Kg",216.1 mm^3
same,Median Tumor Volume,"H526 tumors; Table 56, Day 2, iv weekly, 47-R 0.1 mg/Kg, Compound D 0.5 mg/Kg",240.9 mm^3
same,Median Tumor Volume,"H526 tumors; Table 56, Day 4, iv weekly, 47-R 0.1 mg/Kg, Compound D 0.5 mg/Kg",99.3 mm^3
same,Median Tumor Volume,"H526 tumors; Table 56, Day 7, iv weekly, 47-R 0.1 mg/Kg, Compound D 0.5 mg/Kg",56.7 mm^3
same,Median Tumor Volume,"H526 tumors; Table 56, Day 9, iv weekly, 47-R 0.1 mg/Kg, Compound D 0.5 mg/Kg",62.5 mm^3
same,Median Tumor Volume,"H526 tumors; Table 56, Day 11, iv weekly, 47-R 0.1 mg/Kg, Compound D 0.5 mg/Kg",62.5 mm^3
same,Median Tumor Volume,"H526 tumors; Table 56, Day 14, iv weekly, 47-R 0.1 mg/Kg, Compound D 0.5 mg/Kg",32.0 mm^3
same,Median Tumor Volume,"H526 tumors; Table 56, Day 16, iv weekly, 47-R 0.1 mg/Kg, Compound D 0.5 mg/Kg",4.0 mm^3
same,Median Tumor Volume,"H526 tumors; Table 56, Day 21, iv weekly, 47-R 0.1 mg/Kg, Compound D 0.5 mg/Kg",4.0 mm^3
same,Median Tumor Volume,"H526 tumors; Table 56, Day 28, iv weekly, 47-R 0.1 mg/Kg, Compound D 0.5 mg/Kg",4.0 mm^3
same,Median Tumor Volume,"H526 tumors; Table 56, Day 35, iv weekly, 47-R 0.1 mg/Kg, Compound D 0.5 mg/Kg",4.0 mm^3
same,Median Tumor Volume,"H526 tumors; Table 56, Day 42, iv weekly, 47-R 0.1 mg/Kg, Compound D 0.5 mg/Kg",4.0 mm^3
same,Median Tumor Volume,"H526 tumors; Table 56, Day 49, iv weekly, 47-R 0.1 mg/Kg, Compound D 0.5 mg/Kg",4.0 mm^3
same,Median Tumor Volume,"H526 tumors; Table 56, Day 56, iv weekly, 47-R 0.1 mg/Kg, Compound D 0.5 mg/Kg",4.0 mm^3
same,Median Tumor Volume,"H526 tumors; Table 56, Day 63, iv weekly, 47-R 0.1 mg/Kg, Compound D 0.5 mg/Kg",4.0 mm^3
same,Median Tumor Volume,"H526 tumors; Table 56, Day 70, iv weekly, 47-R 0.1 mg/Kg, Compound D 0.5 mg/Kg",4.0 mm^3
same,Median Tumor Volume,"H526 tumors; Table 56, Day 77, iv weekly, 47-R 0.1 mg/Kg, Compound D 0.5 mg/Kg",4.0 mm^3
same,Median Tumor Volume,"H526 tumors; Table 56, Day 84, iv weekly, 47-R 0.1 mg/Kg, Compound D 0.5 mg/Kg",4.0 mm^3
same,Median Tumor Volume,"H526 tumors; Table 56, Day 91, iv weekly, 47-R 0.1 mg/Kg, Compound D 0.5 mg/Kg",4.0 mm^3
same,Median Tumor Volume,"H526 tumors; Table 56, Day 98, iv weekly, 47-R 0.1 mg/Kg, Compound D 0.5 mg/Kg",4.0 mm^3
same,Median Tumor Volume,"H526 tumors; Table 56, Day 105, iv weekly, 47-R 0.1 mg/Kg, Compound D 0.5 mg/Kg",4.0 mm^3
same,Median Tumor Volume,"H526 tumors; Table 56, Day 112, iv weekly, 47-R 0.1 mg/Kg, Compound D 0.5 mg/Kg",4.0 mm^3
same,Median Tumor Volume,"H526 tumors; Table 56, Day 119, iv weekly, 47-R 0.1 mg/Kg, Compound D 0.5 mg/Kg",4.0 mm^3
same,Median Tumor Volume,"H526 tumors; Table 56, Day 126, iv weekly, 47-R 0.1 mg/Kg, Compound D 0.5 mg/Kg",4.0 mm^3
same,Median Tumor Volume,"H526 tumors; Table 56, Day 133, iv weekly, 47-R 0.1 mg/Kg, Compound D 0.5 mg/Kg",4.0 mm^3
same,Median Tumor Volume,"H526 tumors; Table 56, Day 140, iv weekly, 47-R 0.1 mg/Kg, Compound D 0.5 mg/Kg",4.0 mm^3
same,Median Tumor Volume,"H526 tumors; Table 56, Day 147, iv weekly, 47-R 0.1 mg/Kg, Compound D 0.5 mg/Kg",4.0 mm^3
same,Median Tumor Volume,"H526 tumors; Table 56, Day 165, iv weekly, 47-R 0.1 mg/Kg, Compound D 0.5 mg/Kg",4.0 mm^3
same,Median Tumor Volume,"H526 tumors; Table 56, Day 175, iv weekly, 47-R 0.1 mg/Kg, Compound D 0.5 mg/Kg",4.0 mm^3
same,Median Tumor Volume,"H526 tumors; Table 56, Day 191, iv weekly, 47-R 0.1 mg/Kg, Compound D 0.5 mg/Kg",4.0 mm^3
same,Median Tumor Volume,"H526 tumors; Table 56, Day 205, iv weekly, 47-R 0.1 mg/Kg, Compound D 0.5 mg/Kg",4.0 mm^3
